Target: T1, human vasopressin V2 receptor subtype (Homo sapiens, UniProt P30518)
T1 construct: host or cells: CHO cells, stably transfected (pZeoSV vector)
Experiment: Vasopressin binding in CHO cell membranes expressing human vasopressin V2 subtype receptors ([3H]arginine vasopressin radioligand binding)
Conditions: 100 nM
Protocol: Vasopressin Binding in Chinese Hamster Ovary Cell Membranes Expressing Human Vasopressin V2 Subtype Receptors
Chinese Hamster Ovary (CHO) cells stably transfected with the human V2 subtype receptors were obtained from M. Thibonnier, Case Western Reserve University School of Medicine, Cleveland, Ohio.
The trypsin is removed by aspiration and the cells dislodged by tapping. Cell Culture medium (e.g. 30 mL for 1:30 split) is immediately added and mixed well to inactivate trypsin. 1 mL of detached cells is added to new culture flasks containing fresh Cell Culture medium (e.g. into 25 mL per T-150 flask), and mixed gently. The cells are incubated at 37° C. in 5% CO2. The medium is changed at 3 to 4 day interval (or as appropriate). […] All steps are done under sterile conditions.
The cells are washed twice gently with Hank's Balanced Salt solution (e.g. use 10 mL per T-150 flask). […] The contents are transferred to centrifuge tubes (50 mL) kept in ice bath. All subsequent steps are done at 4° C. The tubes are centrifuged at 300×g for 15 min (1380 rpm on SORVAL, Model RT6000D, using the rotor for 50 mL tubes). The supernatant is discarded and the cells suspended in homogenizing buffer(10 mM Tris-HCl containing 0.25 M sucrose and 1 mM EDTA, pH 7.4) ensuring that the volume of the buffer is about ten times the volume of the cell pellet. The cells are pooled into a centrifuge tube (50 mL) and homogenized with Polytron at setting 6 for 10 sec. The homogenate is transferred into a Potter-Elvjehm homogenizer and homogenized with 3 strokes. The homogenate is centrifuged at 1500×g for 60 min at 4° C. (3100 rpm using SORVAL, model RT6000D, using the rotor for 50 mL tubes). The pellet is discarded. The supernatant is centrifuged at 100,000×g for 60 min. at 4° C. (Beckman L8-80M ultracentrifuge; spin at 37,500 rpm with rotor type 70 Ti for 50 mL tubes; 38,000 rpm with type 80Ti for 15 mL tubes; or 35,800 rpm with rotor type 45Ti). The supernantant is discarded and the pellet suspended in 3 to 4 mL of Tris buffer (50 mM TRIS-HCl, pH 7.4). The protein content is estimated by the Bradford or Lowry method. The volume of the membrane suspension is adjusted with the membrane buffer (50 mM Tris-HCl containing 0.1% BSA and 0.1 mM PMSF) to give 3.0 mg/mL (or as appropriate) of protein. The membranes are aliquoted and stored at −70° C.
In wells of a 96-well format microtiter plate, is added 90, 110 or 130 μL (to make up a final volume of 200 μL) of assay buffer containing 50 mM of Tris-HCl (pH 7.4), […], 1 mg % aprotinin, 1 mg % leupeptin, 2 mg % 1,10-phenanthroline, 10 mg % trypsin inhibitor, and 0.1 mM PMSF. The inhibitors are added on the day of the experiment. The components are mixed at room temperature, and then kept in ice bath following adjustment of the pH to 7.4. […] For vasopressin and other peptide ligands 20 μL of 50% DMSO is added and the assay buffer volume is adjusted accordingly. To each well is added 50 μL of frozen membrane suspension thawed immediately prior to use and diluted in assay buffer to the required concentration (equivalent to 25 to 50 μg of protein/well as needed). 20 μL of 8 nM [^3H]arginine vasopressin ligand in the assay buffer, prepared just before use is added and incubated at room temperature for 60 min. shaking the plate on a mechanical shaker for the first 15 min. The incubation is stopped by rapid filtration of the plate contents followed by wash with ice-cold buffer (50 mM Tris-HCl, pH 7.4) using a cell harvester (Tomtek and Printed filtermat-B filter paper). The filter paper is thoroughly dried (7–12 min. in a microwave oven) and impregnated with MeltiLex B/H melt-on scintillation wax sheets and the radioactivity counted in a betaplate scintillation counter.
Binding data is either reported as percent inhibition at a certain concentration or if an IC50 was calculated, as a nanomolar concentration.

T1 sequence (P30518 whole entry): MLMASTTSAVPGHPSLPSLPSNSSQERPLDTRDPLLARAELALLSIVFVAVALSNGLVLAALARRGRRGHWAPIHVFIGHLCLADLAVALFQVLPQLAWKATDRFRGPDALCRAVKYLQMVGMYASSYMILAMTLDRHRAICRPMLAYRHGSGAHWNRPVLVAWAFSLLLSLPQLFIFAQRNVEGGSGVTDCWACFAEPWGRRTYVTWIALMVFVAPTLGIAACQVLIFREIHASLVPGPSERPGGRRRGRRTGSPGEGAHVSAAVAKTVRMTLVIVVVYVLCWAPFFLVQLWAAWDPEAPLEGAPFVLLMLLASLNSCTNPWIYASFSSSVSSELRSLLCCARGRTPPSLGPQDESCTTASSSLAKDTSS

Row | Structure (SMILES) | inhibition at 0.1 µM [%] | V2 % inhibition @ 100 nM [%]
1 | COc1cccc(-c2cc(OC)c(C(=O)N3Cc4ccc(C(=O)N(C)CCc5ccncc5)n4Cc4ccccc43)cc2Cl)c1 [Example 133, 10-[(6-Chloro-3,3′-dimethoxy-[1,1′-biphenyl]-4-yl)carbonyl]-N-methyl-N-[2-(4-pyridinyl)ethyl]-10,11-dihydro-5H-pyrrolo[2,1-c][1,4]benzodiazepine-3-carboxamide] | 15 | –
2 | COc1cccc(-c2ccc(C(=O)N3Cc4ccc(C(=O)N(C)CCc5ccncc5)n4Cc4ccccc43)cc2OC)c1 [Example 135, 10-[(2,3′-Dimethoxy-[1,1′-biphenyl]-4-yl)carbonyl]-N-methyl-N-[2-(4-pyridinyl)ethyl]-10,11-dihydro-5H-pyrrolo[2,1-c][1,4]benzodiazepine-3-carboxamide] | 35 | –
3 | COc1cc(C(=O)N2Cc3ccc(C(=O)N(C)CCc4ccncc4)n3Cc3ccccc32)ccc1-c1ccccc1C [Example 131, 10-[(2-Methoxy-2′-methyl-[1,1′-biphenyl]-4-yl)carbonyl]-N-methyl-N-[2-(4-pyridinyl)ethyl]-10,11-dihydro-5H-pyrrolo[2,1-c][1,4]benzodiazepine-3-carboxamide] | -5 | –
4 | COc1cc(C(=O)N2Cc3ccc(C(=O)N4CCN(c5ccccn5)CC4)n3Cc3ccccc32)ccc1-c1cccc2ccccc12 [Example 83] | – | 22
5 | COc1ccccc1-c1ccc(C(=O)N2Cc3ccc(C(=O)NCc4ccccn4)n3Cc3ccccc32)cc1 [Example 26, 10-[(2′-Methoxy-[1,1′-biphenyl]-4-yl)carbonyl]-N-(2-pyridinylmethyl)-10,11-dihydro-5H-pyrrolo[2,1-c][1,4]benzodiazepine-3-carboxamide] | 23 | –
6 | COc1cc(-c2ccccc2C)c(Cl)cc1C(=O)N1Cc2ccc(C(=O)N(C)CCc3ccncc3)n2Cc2ccccc21 [Example 132, 10-[(6-Chloro-3-methoxy-2′-methyl-[1,1′-biphenyl]-4-yl)carbonyl]-N-methyl-N-[2-(4-pyridinyl)ethyl]-10,11-dihydro-5H-pyrrolo[2,1-c][1,4]benzodiazepine-3-carboxamide] | 25 | –
7 | COc1cc(C(=O)N2Cc3ccc(C(=O)N4CCN(c5ccncc5)CC4)n3Cc3ccccc32)ccc1-c1cccc2ccccc12 [Example 121, {10-[3-Methoxy-4-(naphthalen-1-yl)benzoyl]-10,11-dihydro-5H-pyrrolo[2,1-c][1,4]benzodiazepin-3-yl}[4-(4-pyridinyl)-1-piperazinyl]methanone] | -4 | –
8 | COc1cc(-c2ccccc2C)c(Cl)cc1C(=O)N1Cc2ccc(C(=O)N(C)Cc3cccnc3)n2Cc2ccccc21 [Example 107, 10-[(6-Chloro-3-methoxy-2′-methyl-[1,1′-biphenyl]-4-yl)carbonyl]-N-methyl-N-(3-pyridinylmethyl)-10,11-dihydro-5H-pyrrolo[2,1-c][1,4]benzodiazepine-3-carboxamide] | 30 | –
9 | O=C(NCc1ccccn1)c1ccc2n1Cc1ccccc1N(C(=O)c1ccc(-c3cccc4ccccc34)cc1Cl)C2 [Example 34, 10-[2-Chloro-4-(naphthalen-1-yl)benzoyl]-N-(2-pyridinylmethyl)-10,11-dihydro-5H-pyrrolo[2,1-c][1,4]benzodiazepine-3-carboxamide] | 5 | –
10 | Cc1ccccc1-c1ccc(C(=O)N2Cc3ccc(C(=O)NCCc4ccccn4)n3Cc3ccccc32)cc1 [Example 53, 10-[(2′-Methyl-[1,1′-biphenyl]-4-yl)carbonyl]-N-[2-(2-pyridinyl)ethyl]-10,11-dihydro-5H-pyrrolo[2,1-c][1,4]benzodiazepine-3-carboxamide] | 13 | –
11 | Cc1ccccc1-c1ccc(C(=O)N2Cc3ccc(C(=O)N4CCN(c5ccncc5)CC4)n3Cc3ccccc32)cc1C [Example 114, {10-[(2,2′-Dimethyl-[1,1′-biphenyl]-4-yl)carbonyl]-10,11-dihydro-5H-pyrrolo[2,1-c][1,4]benzodiazepin-3-yl}[4-(4-pyridinyl)-1-piperazinyl]methanone] | 18 | –
12 | Cc1cc(C(=O)N2Cc3ccc(C(=O)NCCc4ccccn4)n3Cc3ccccc32)ccc1-c1ccccc1C(F)(F)F [Example 61, 10-{[2-Methyl-2′-trifluoromethyl=[1,1′-biphenyl]-4-yl]carbonyl}-N-[2-(2-pyridinyl)ethyl]-10,11-dihydro-5H-pyrrolo[2,1-c][1,4]benzodiazepine-3-carboxamide] | – | 14

Second part, led by results:

Row | inhibition at 0.1 µM [%] | Structure (SMILES) | V2 % inhibition @ 100 nM [%]
13 | 5 | COc1cc(-c2ccccc2C)c(Cl)cc1C(=O)N1Cc2ccc(C(=O)NCCc3ccccn3)n2Cc2ccccc21 [Example 55, 10-[(6-Chloro-3-methoxy-2′-methyl-[1,1′-biphenyl]-4-yl)carbonyl]-N-[2-(2-pyridinyl)ethyl]-10,11-dihydro-5H-pyrrolo[2,1-c][1,4]benzodiazepine-3-carboxamide] | –
14 | 22 | COc1ccccc1-c1ccc(C(=O)N2Cc3ccc(C(=O)NCCc4ccccn4)n3Cc3ccccc32)cc1OC [Example 58, 10-[(2,2′-Dimethoxy-[1,1′-biphenyl]-4-yl)carbonyl]-N-[2-(2-pyridinyl)ethyl]-10,11-dihydro-5H-pyrrolo[2,1-c][1,4]benzodiazepine-3-carboxamide] | –
15 | 14 | COc1cccc(-c2cc(OC)c(C(=O)N3Cc4ccc(C(=O)NCc5ccccn5)n4Cc4ccccc43)cc2Cl)c1 [Example 30, 10-[(6-Chloro-3,3′-dimethoxy-[1,1′-biphenyl]-4-yl)carbonyl]-N-(2-pyridinylmethyl)-10,11-dihydro-5H-pyrrolo[2,1-c][1,4]benzodiazepine-3-carboxamide] | –
16 | 8 | COc1cccc(-c2ccc(C(=O)N3Cc4ccc(C(=O)NCc5cccnc5)n4Cc4ccccc43)cc2OC)c1 [Example 46, 10-[(2,3′-Dimethoxy-[1,1′-biphenyl]-4-yl)carbonyl]-N-(3-pyridinylmethyl)-10,11-dihydro-5H-pyrrolo[2,1-c][1,4]benzodiazepine-3-carboxamide] | –
17 | 33 | COc1cc(C(=O)N2Cc3ccc(C(=O)NCCc4ccccn4)n3Cc3ccccc32)ccc1-c1cccc2ccccc12 [Example 57, 10-[3-Methoxy-4-(naphthalen-1-yl)benzoyl]-N-[2-(2-pyridinyl)ethyl]-10,11-dihydro-5H-pyrrolo[2,1-c][1,4]benzodiazepine-3-carboxamide] | –
18 | 29 | COc1cc(-c2ccccc2C)c(Cl)cc1C(=O)N1Cc2ccc(C(=O)N3CCCCC3c3cccnc3)n2Cc2ccccc21 (centres unmarked) [Example 140, {10-[(6-Chloro-3-methoxy-2′-methyl-[1,1′-biphenyl]-4-yl)carbonyl]-10,11-dihydro-5H-pyrrolo[2,1-c][1,4]benzodiazepin-3-yl}[2-(3-pyridinyl)-1-piperidinyl]methanone] | –
19 | 2 | COc1cc(C(=O)N2Cc3ccc(C(=O)N(C)CCc4ccccn4)n3Cc3ccccc32)ccc1-n1c(C)ccc1C [Example 144, 10-[4-(2,5-Dimethyl-1H-pyrrol-1-yl)-3-methoxybenzoyl]-N-methyl-N-[2-(pyridin-2-yl)ethyl]-10,11-dihydro-5H-pyrrolo[2,1-c][1,4]benzodiazepine-3-carboxamide] | –
20 | -10 | COc1ccccc1-c1ccc(C(=O)N2Cc3ccc(C(=O)N(C)CCc4ccncc4)n3Cc3ccccc32)cc1OC [Example 125, 10-[(2,2′-Dimethoxy-[1,1′-biphenyl]-4-yl)carbonyl]-N-methyl-N-[2-(4-pyridinyl)ethyl]-10,11-dihydro-5H-pyrrolo[2,1-c][1,4]benzodiazepine-3-carboxamide] | –
